Legend:
Type in all cases: in vivo
[1] = tested on: Monochoria vaginalis; experiment: Test Example 2: herbicidal activity, application during weed generation in submerged conditions (symbol C); details: Table 23; application herbicide amount 320 g/ha; grade 0-5 by criteria of Test Example 1
Procedure, shortened: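 Seeds sown in flooded alluvial soil (4 cm water) were grown in a 25-30° C greenhouse. At the one- to two-leaf stage, diluted emulsion of compound was applied to the water surface at a predetermined rate. Effect was scored 3 weeks later.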

[2] = tested on: Amaranthus retroflexus; experiment: Test Example 4: herbicidal effect by soil treatment (symbol N); details: application herbicide amount 320 g/ha
Procedure, shortened: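 Seeds were sown in sterilized diluvial soil, covered with about 1.5 cm of soil, and the soil surface was sprayed with a water-diluted emulsion of the compound at a predetermined rate. Plants grew in a greenhouse at 25° C. to 30° C.; effects were scored visually 3 weeks after application.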

[3] = tested on: corn; experiment: Test Example 4: effect on crop by soil treatment (symbol c); details: application herbicide amount 320 g/ha
Procedure, shortened: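 Steps: fill box with sterilized diluvial soil; sow seed spot-like; cover with ~1.5 cm soil; grow in greenhouse (25° C. to 30° C.).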

[4] = tested on: soybean; experiment: Test Example 4: effect on crop by soil treatment (symbol d); details: application herbicide amount 320 g/ha
Procedure, shortened: (§1)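 The test used sterilized diluvial soil. Seed was set down in spots and overlaid with about 1.5 cm of soil before growth in a greenhouse kept at 25° C. to 30° C.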

[5] = tested on: rice; experiment: Test Example 4: effect on crop by soil treatment (symbol b); details: application herbicide amount 320 g/ha
Procedure, shortened: as §1

[6] = tested on: rice plant; experiment: Test Example 5: effect on crop by foliage application, plastic box (symbol b); details: 320 g/ha, 3 weeks after application
Procedure, shortened: (§2)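 Crop and weed seeds sown in spots in sterilized diluvial soil in plastic boxes and covered with about 1.5 cm soil. Plants raised in a greenhouse at 25° C. to 30° C. for foliar application.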

[7] = tested on: wheat; experiment: Test Example 5: effect on crop by foliage application, plastic box (symbol e); details: 320 g/ha, 3 weeks after application
Procedure, shortened: as §2

| Compound | Herbicidal effect grade, C: Monochoria vaginalis [1] | Herbicidal effect grade, N: Amaranthus retroflexus [2] | Effect on crop grade, c: corn [3] | Effect on crop grade, d: soybean [4] | Effect on crop grade, b: directly sowed rice plant [5] | b: directly sowed rice plant, effect on crop (criteria of Test Example 1) [6] | e: wheat, effect on crop (criteria of Test Example 1) [7] | N: Amaranthus retroflexus, herbicidal effect grade [2] | c: corn, effect on crop grade [3] | d: soybean, effect on crop grade [4] | b: directly sowed rice plant, effect on crop grade [5] |
| --- | --- | --- | --- | --- | --- | --- | --- | --- | --- | --- | --- |
| CON=C(C)C(C)C1CC(O)=C(c2c(C)cc(Br)cc2OC)C1=O (centres unmarked) [6-113] | 3 (Herbicidal ratio of 40% or higher and lower than 70%) | 0 (Herbicidal ratio of 5% or lower (almost no effect)) | 1 (Herbicidal ratio of 5% or higher and lower than 20%) | 0 (Herbicidal ratio of 5% or lower (almost no effect)) | 5 (Herbicidal ratio of 90% or more (almost completely withered)) | 5 (Herbicidal ratio of 90% or more (almost completely withered)) | 5 (Herbicidal ratio of 90% or more (almost completely withered)) |  |  |  |  |
| CC(=O)CC1CC(O)=C(c2c(C)cc(-c3ccc(Cl)cc3)cc2C)C1=O (centres unmarked) [7-008] | 0 (Herbicidal ratio of 5% or lower (almost no effect)) | 0 (Herbicidal ratio of 5% or lower (almost no effect)) | 4 (Herbicidal ratio of 70% or higher and lower than 90%) | 0 (Herbicidal ratio of 5% or lower (almost no effect)) | 5 (Herbicidal ratio of 90% or more (almost completely withered)) | 5 (Herbicidal ratio of 90% or more (almost completely withered)) | 4 (Herbicidal ratio of 70% or higher and lower than 90%) |  |  |  |  |
| CON=C(C)CC1CC(OC(=O)C(C)CSC)=C(c2c(C)cc(-c3ccc(Cl)cc3)cc2C)C1=O (centres unmarked) [6-086] | 3 (Herbicidal ratio of 40% or higher and lower than 70%) | 3 (Herbicidal ratio of 40% or higher and lower than 70%) | 0 (Herbicidal ratio of 5% or lower (almost no effect)) | 5 (Herbicidal ratio of 90% or more (almost completely withered)) | 1 (Herbicidal ratio of 5% or higher and lower than 20%) | 5 (Herbicidal ratio of 90% or more (almost completely withered)) | 5 (Herbicidal ratio of 90% or more (almost completely withered)) |  |  |  |  |
| CON=C(C)CC1CC(O)=C(c2c(C)cc(-c3ccc(Cl)cc3)cc2OC)C1=O (centres unmarked) [6-077, 2-(4′-chloro-3-methoxy-5-methyl-[1,1′-biphenyl]-4-yl)-3-hydroxy-5-{2-(methoxyimino)propyl}cyclopent-2-enone] | 3 (Herbicidal ratio of 40% or higher and lower than 70%) |  |  |  |  | 5 (Herbicidal ratio of 90% or more (almost completely withered)) | 5 (Herbicidal ratio of 90% or more (almost completely withered)) | 5 (Herbicidal ratio of 90% or more (almost completely withered)) | 0 (Herbicidal ratio of 5% or lower (almost no effect)) | 0 (Herbicidal ratio of 5% or lower (almost no effect)) | 5 (Herbicidal ratio of 90% or more (almost completely withered)) |
| CC#Cc1cc(C)c(C2=C(O)CC(CC(C)=O)C2=O)c(C)c1 (centres unmarked) [7-010] | 1 (Herbicidal ratio of 5% or higher and lower than 20%) | 0 (Herbicidal ratio of 5% or lower (almost no effect)) | 5 (Herbicidal ratio of 90% or more (almost completely withered)) | 2 (Herbicidal ratio of 20% or higher and lower than 40%) | 5 (Herbicidal ratio of 90% or more (almost completely withered)) | 5 (Herbicidal ratio of 90% or more (almost completely withered)) | 5 (Herbicidal ratio of 90% or more (almost completely withered)) |  |  |  |  |
| CON=C(C)CC1CC(OC(=O)N(C)C)=C(c2c(C)cc(C)cc2OC)C1=O (centres unmarked) [6-109] | 2 (Herbicidal ratio of 20% or higher and lower than 40%) | 0 (Herbicidal ratio of 5% or lower (almost no effect)) | 0 (Herbicidal ratio of 5% or lower (almost no effect)) | 0 (Herbicidal ratio of 5% or lower (almost no effect)) | 1 (Herbicidal ratio of 5% or higher and lower than 20%) | 5 (Herbicidal ratio of 90% or more (almost completely withered)) | 4 (Herbicidal ratio of 70% or higher and lower than 90%) |  |  |  |  |
| COc1cc(Br)cc(F)c1C1=C(O)CC(CC(C)=O)C1=O (centres unmarked) [7-029] |  | 0 (Herbicidal ratio of 5% or lower (almost no effect)) | 0 (Herbicidal ratio of 5% or lower (almost no effect)) | 0 (Herbicidal ratio of 5% or lower (almost no effect)) | 1 (Herbicidal ratio of 5% or higher and lower than 20%) |  | 2 (Herbicidal ratio of 20% or higher and lower than 40%) |  |  |  |  |
| CC(=O)CC1CC(O)=C(c2c(C)cc(Oc3ccc(C(F)(F)F)cn3)cc2C)C1=O (centres unmarked) [7-019] |  | 0 (Herbicidal ratio of 5% or lower (almost no effect)) | 0 (Herbicidal ratio of 5% or lower (almost no effect)) | 0 (Herbicidal ratio of 5% or lower (almost no effect)) | 0 (Herbicidal ratio of 5% or lower (almost no effect)) | 1 (Herbicidal ratio of 5% or higher and lower than 20%) | 0 (Herbicidal ratio of 5% or lower (almost no effect)) |  |  |  |  |
| CON=C(C)CC1CC(OC(=O)N2CCOCC2)=C(c2c(C)cc(-c3ccc(Cl)cc3)cc2OC)C1=O (centres unmarked) [6-078, 2-(4′-chloro-3-methoxy-5-methyl-[1,1′-biphenyl]-4-yl)-4-{2-(methoxyimino)propyl}-3-oxocyclopent-1-ene-1-yl morpholine-4-carboxylate] | 3 (Herbicidal ratio of 40% or higher and lower than 70%) |  |  |  |  |  | 5 (Herbicidal ratio of 90% or more (almost completely withered)) | 0 (Herbicidal ratio of 5% or lower (almost no effect)) | 0 (Herbicidal ratio of 5% or lower (almost no effect)) | 1 (Herbicidal ratio of 5% or higher and lower than 20%) | 1 (Herbicidal ratio of 5% or higher and lower than 20%) |
| CON=C(C)CC1CC(OC(=O)SC(C)(C)C)=C(c2c(C)cc(-c3ccc(Cl)cc3)cc2C)C1=O (centres unmarked) [6-082] | 5 (Herbicidal ratio of 90% or more (almost completely withered)) |  |  |  |  | 5 (Herbicidal ratio of 90% or more (almost completely withered)) | 5 (Herbicidal ratio of 90% or more (almost completely withered)) |  | 0 (Herbicidal ratio of 5% or lower (almost no effect)) | 0 (Herbicidal ratio of 5% or lower (almost no effect)) | 1 (Herbicidal ratio of 5% or higher and lower than 20%) |
| CON=C(C)CC1CC(OC(=O)N2CCOCC2)=C(c2c(C)cc(-c3ccc(Cl)cc3F)cc2C)C1=O (centres unmarked) [6-089] | 3 (Herbicidal ratio of 40% or higher and lower than 70%) | 0 (Herbicidal ratio of 5% or lower (almost no effect)) | 0 (Herbicidal ratio of 5% or lower (almost no effect)) | 0 (Herbicidal ratio of 5% or lower (almost no effect)) | 0 (Herbicidal ratio of 5% or lower (almost no effect)) |  | 4 (Herbicidal ratio of 70% or higher and lower than 90%) |  |  |  |  |

Source: patent US11000033B2, “Ketone or oxime compound, and herbicide” (NISSAN CHEMICAL CORPORATION, priority 2014, dated 2021)
